≈ marks a conversion by molar mass, not a printed value. Some results are limits rather than exact numbers.

Test [1] has as its system Mycobacterium tuberculosis. Kind of test: Antituberculosis activity against Mycobacterium tuberculosis H37Rv Ddn mutant after 2 weeks. The format is functional.
Test [2] relates to Mycobacterium tuberculosis. Kind of test: Antituberculosis activity against Mycobacterium tuberculosis H37Rv F420 mutant after 2 weeks. In kind it is functional.

What is called MIC is the smallest concentration in the dilution series that meets the test's criterion for growth inhibition. A high value points to a less susceptible organism. `N#Cc1c([N+](=O)[O-])nc2n1C[C@H](OCc1ccc(OC(F)(F)F)cc1)CO2`: the MIC in test [1] and in test [2] was over 100 µM throughout.

Take `O=[N+]([O-])c1nc2n(c1Br)C[C@H](OCc1ccc(OC(F)(F)F)cc1)CO2`: the MIC in test [1] and in test [2] was 25 µM (≈ 11 µg/mL) throughout.

Take `Nc1c([N+](=O)[O-])nc2n1C[C@H](OCc1ccc(OC(F)(F)F)cc1)CO2`: the MIC in test [1] and in test [2] was over 100 µM in each case.

With `O=[N+]([O-])c1nc2n(c1Cl)C[C@H](OCc1ccc(OC(F)(F)F)cc1)CO2`, the results for the MIC in test [1] and in test [2] were 50 µM (≈ 19.7 µg/mL) and 25 µM (≈ 9.84 µg/mL), respectively.

In the case of `O=[N+]([O-])c1cn2c(n1)OC[C@@H](OCc1ccc(OC(F)(F)F)cc1)C2` [PRETOMANID], the minimum inhibitory concentration (MIC) in test [1] and in test [2] was over 100 µM each time.

These data come from ChEMBL document CHEMBL1641439, “The effect of 5-substitution on the electrochemical behavior and antitubercular activity of PA-824” (2011).
